{"source": "patent US8895512B2", "about": "“Composition for improving brain function and method for improving brain function” (Calpis Co., Ltd., priority 2010, dated 2014)", "key": {"[1]": {"test_system": "scopolamine-induced amnesia", "details": "male ddY mice; single oral dose of 5000 nmol/kg weight (1300 μg/kg) 60 min before Y-shaped maze test; scopolamine 1 mg/kg s.c. 30 min before test", "experimental": "Water (control), scopolamine alone, or 500 nmol/kg weight or 5000 nmol/kg weight of FP together with scopolamine, was administered to mice, and their respective prophylactic effects against amnesia were evaluated in accordance with a method described in Example 1.\nMale mice (n=15) of the ddY strain (approximately 7-week old) were used, and they took food and water ad lib. Test substances used were 500 mol/kg weight (130 μg/kg weight) or 5000 nmol/kg weight (1300 μg/kg weight) of FP. The test substances were administered to the mice once orally 60 minutes before the execution of a Y-shaped maze test for evaluation of spontaneous alternation behavior. […] The sequence of the arms each of the mice entered was recorded. The number of entries by each of the mice for each of the arms during the measurement time was counted to be the total number of entries. […] The percentage of spontaneous alternation behavior was calculated by dividing the number of spontaneous alternation behavior by a number obtained by subtracting 2 from the total number of entries, and multiplying a resultant number by 100. […] The measured values were expressed in the form of mean±standard error for each group. A significant difference between the control group and the scopolamine control group was calculated using Student's t-test. […]"}, "ACE": {"molecular_target": "ACE (Homo sapiens, UniProt P12821)", "sequence (P12821 30-1306, species assumed)": "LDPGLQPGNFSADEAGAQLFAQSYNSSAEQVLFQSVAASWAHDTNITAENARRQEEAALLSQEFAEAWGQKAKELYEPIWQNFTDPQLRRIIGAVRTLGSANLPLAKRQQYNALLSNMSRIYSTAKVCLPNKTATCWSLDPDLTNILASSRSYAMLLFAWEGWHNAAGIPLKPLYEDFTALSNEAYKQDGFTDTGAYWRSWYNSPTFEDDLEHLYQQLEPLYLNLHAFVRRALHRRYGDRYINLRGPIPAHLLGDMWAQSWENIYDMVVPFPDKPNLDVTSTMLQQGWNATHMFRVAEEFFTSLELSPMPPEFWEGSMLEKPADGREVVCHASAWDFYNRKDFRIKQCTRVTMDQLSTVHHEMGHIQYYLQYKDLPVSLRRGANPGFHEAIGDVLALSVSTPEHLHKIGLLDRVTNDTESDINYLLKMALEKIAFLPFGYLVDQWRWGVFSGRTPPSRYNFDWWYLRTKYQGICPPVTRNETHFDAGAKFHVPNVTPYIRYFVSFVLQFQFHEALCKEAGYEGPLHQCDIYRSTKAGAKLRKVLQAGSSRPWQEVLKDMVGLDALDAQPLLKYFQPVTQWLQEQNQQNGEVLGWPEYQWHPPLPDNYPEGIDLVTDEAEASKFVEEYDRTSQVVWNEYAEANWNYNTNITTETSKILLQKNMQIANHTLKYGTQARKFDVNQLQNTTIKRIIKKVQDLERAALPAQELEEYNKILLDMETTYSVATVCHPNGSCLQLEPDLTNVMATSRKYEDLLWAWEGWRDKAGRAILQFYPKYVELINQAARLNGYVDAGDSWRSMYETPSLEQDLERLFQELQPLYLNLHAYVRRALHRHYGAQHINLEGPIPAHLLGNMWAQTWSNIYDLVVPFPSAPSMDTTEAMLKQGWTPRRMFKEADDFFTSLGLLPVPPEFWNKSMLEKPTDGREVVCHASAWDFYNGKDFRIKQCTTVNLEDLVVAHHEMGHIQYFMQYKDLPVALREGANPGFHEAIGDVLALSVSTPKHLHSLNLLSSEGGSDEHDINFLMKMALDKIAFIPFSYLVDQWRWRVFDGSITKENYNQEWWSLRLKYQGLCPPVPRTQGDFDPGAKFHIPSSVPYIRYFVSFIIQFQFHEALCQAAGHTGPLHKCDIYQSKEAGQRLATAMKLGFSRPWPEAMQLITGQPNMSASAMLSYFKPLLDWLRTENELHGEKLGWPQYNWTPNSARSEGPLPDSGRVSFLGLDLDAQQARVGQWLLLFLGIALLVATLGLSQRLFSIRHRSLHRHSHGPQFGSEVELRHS", "details": "reported in reference 3; cited from earlier work"}}, "data": [{"substance": "Phe-Pro", "values": [{"measurement": "prophylactic activity against amnesia (percentage of spontaneous alternation behavior)", "setting": "[1]", "result": "had a prophylactic activity against amnesia"}, {"measurement": "hypotensive lowering activity based on ACE inhibitory activity", "setting": "ACE", "result": "hypotensive lowering activity based on ACE inhibitory activity has been reported"}]}]}
